In patent US20060178374A1, “Aminoheteroaryl compounds as protein kinase inhibitors” (AGOURON PHARMACEUTICALS, INC., priority 2004, published 2006):

Molecular target: HGFR (c-Met) (Homo sapiens, UniProt P08581)
Assay: HGFR Continuous-Coupled Spectrophotometric Assay
Format: biochemical
Conditions: HGFR enzyme 50 nM, Met-2 peptide substrate, 37° C.
Procedure: The general procedure is as follows: compounds and kinase assay reagents are introduced into test wells. The assay is initiated by addition of the kinase enzyme. Enzyme inhibitors reduce the measured activity of the enzyme.
In the continuous-coupled spectrophotometric assay the time-dependent production of ADP by the kinase is determined by analysis of the rate of consumption of NADH by measurement of the decrease in absorbance at 340 nm. As the PK produces ADP it is re-converted to ATP by reaction with phosphoenol pyruvate and pyruvate kinase. Pyruvate is also produced in this reaction. Pyruvate is subsequently converted to lactate by reaction with lactate dehydrogenase, which simultaneously converts NADH to NAD.
HGFR Continuous-Coupled Spectrophotometric Assay
This assay analyzes the tyrosine kinase activity of HGFR on the Met-2 substrate peptide, a peptide derived from the activation loop of the HGFR.
• 1. […] Dissolve up in 200 mM HEPES, pH 7.5 at 10 mM stock. • 3. 1 M PEP (phospho-enol-pyruvate) in 200 mM HEPES, pH 7.5 • 4. 100 mM NADH (B-Nicotinamide Adenine Dinucleotide, Reduced Form) in 200 mM HEPES, pH 7.5 • 5. 4 M MgCl2 (Magnesium Chloride) in ddH2O 6. 1 M DTT (Dithiothreitol) in 200 mM HEPES, pH 7.5 • 7. 15 Units/mL LDH (Lactic Dehydrogenase) • 8. 15 Units/mL PK (Pyruvate Kinase) • 9. 5M NaCl dissolved in ddH2O • 10. Tween-20 (Protein Grade) 10% Solution • 11. 1 M HEPES buffer: (N-[2-Hydroxethyl]piperazine-N-[2-ethanesulfonic acid]) Sodium Salt. Dissolve in ddH2O, adjust pH to 7.5, bring volume to 1 L. Filter at 0.1 μm. • 12. […] 100% DMSO (SIGMA) • 14. […] Beckman DU-650 w/ micro cell holders • 18. Beckman 4-position micro cell cuvette Procedure:
Prep Dilution Buffer (DB) for Enzyme (For 30 mL prep) • 1. DB final concentration is 2 mM DTT, 25 mM NaCl2, 5 mM MgCl2, 0.01% Tween-20, and 50 mM HEPES buffer, pH 7.5. • 2. Make up 50 mM HEPES by adding 1.5 mL 1 M HEPES into 28.1 mL of ddH2O. Add rest of the reagents. Into 50 mL conical vial, add 60 μL of 1M DTT, 150 μL 5M NaCl2, 150 μL 1M MgCl2, and 30 μL of 10% Tween-20 to give total volume of 30 mL. • 3. Vortex for 5-10 seconds. • 4. Aliquot out DB at 1 mL/tube and label tubes as “DB HGFR” • 5. Note: This can be prepared and stored ahead of time. • 6. Freeze un-used aliquots in microcentrifuge tubes at −20° C. freezer.
Prep Compounds • 1. For compound dilution plate, add 4 μL of 10 mM stock into column 1 of plate, and bring volume to 100 μL with 100% DMSO. • 2. Set up the Precision 2000 dilution method. A final concentration of 200 μM compound in 50% DMSO, 100 mM HEPES (1:2 serial dilution).
Prep Coupled Enzymatic Buffer:
1. Final concentration in assay:
• 2. For a 10 mL reaction buffer add 10 μL of 1M PEP, 33 μL of 100 mM NADH, 50 μL of 4M MgCl2, 20 μL of 1M DTT, 6 μL of 500 mM ATP, and […] of 10 mM Met-2 peptide into 100 mM HEPES buffer pH 7.5 and vortex/mix. • 3. Add coupling enzymes, LDH and PK, into reaction mix. Mix by gentle inversion.
1. Spectrophotometer settings:
• 2. Add 85 μL of CE reaction mix into each well of assay plate. • 3. Add 5 μL of diluted compound into a well of the assay plate. • 4. Add 5 μL of 50% DMSO for negative control into last column of assay plate. • 5. Mix with multi-channel pipettor or orbital shaker. • 6. Pre-incubate for 10 minutes at 37° C. • 7. Add 10 μL of 500 nM HGFR to each well of assay plate; the final HGFR concentration is 50 nM in a total final volume of 100 μL. • 8. Measure activity for 10 minutes at λ=340 nm and 37° C.
Ki data were obtained using the HGFR Continuous-Coupled Spectrophotometric Assay, and IC50 data were obtained using the Cellular HGFR Autophosphorylation Assay, both of which are described above.

Chain of HGFR (c-Met) (P08581 974-1390): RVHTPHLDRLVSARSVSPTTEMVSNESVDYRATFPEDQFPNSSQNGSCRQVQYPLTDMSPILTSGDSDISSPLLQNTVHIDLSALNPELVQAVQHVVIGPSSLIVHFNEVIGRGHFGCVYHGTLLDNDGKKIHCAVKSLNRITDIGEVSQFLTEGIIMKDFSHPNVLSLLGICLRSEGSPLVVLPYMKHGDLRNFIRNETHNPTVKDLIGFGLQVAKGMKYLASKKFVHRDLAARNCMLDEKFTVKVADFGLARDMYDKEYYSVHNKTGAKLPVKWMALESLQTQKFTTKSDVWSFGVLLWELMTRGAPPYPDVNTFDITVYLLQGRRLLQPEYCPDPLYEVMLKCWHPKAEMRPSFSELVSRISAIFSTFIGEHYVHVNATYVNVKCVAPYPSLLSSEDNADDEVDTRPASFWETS

Ki	Compound
11000 nM	CC(Oc1cc(-c2ccc(C(=O)N3CCC(N4CCCC4)CC3)cc2)cnc1N)c1ccccc1 (stereo not drawn) [Example 53, {4-[6-Amino-5-(1-phenyl-ethoxy)-pyridin-3-yl]-phenyl}-(4-pyrrolidin-1-yl-piperidin-1-yl)-methanone]
79 nM	CC(Oc1cc(-c2ccc(F)c(C(=O)N3C[C@@H](C)N[C@@H](C)C3)c2)cnc1N)c1c(Cl)ccc(F)c1Cl (stereo partly drawn) [Example 54, (5-{6-Amino-5-[1-(2,6-dichloro-3-fluoro-phenyl)-ethoxy]-pyridin-3-yl}-2-fluoro-phenyl)-(dimethyl-piperazin-1-yl)-methanone]
102 nM	CC(Oc1cc(-c2ccc(F)c(C(=O)N3CCC(N4CCCC4)CC3)c2)cnc1N)c1c(Cl)ccc(F)c1Cl (stereo not drawn) [Example 55, (5-{6-Amino-5-[1-(2,6-dichloro-3-fluoro-phenyl)-ethoxy]-pyridin-3-yl}-2-fluoro-phenyl)-(4-pyrrolidin-1-yl-piperidin-1-yl)-methanone]
173 nM	Cc1ccc(F)c(C(C)Oc2cc(-c3ccc(C(=O)N4CCC(N5CCCC5)CC4)cc3)cnc2N)c1Cl (stereo not drawn) [Example 56, (4-{6-Amino-5-[1-(2-chloro-6-fluoro-3-methyl-phenyl)-ethoxy]-pyridin-3-yl}-phenyl)-(4-pyrrolidin-1-yl-piperidin-1-yl)-methanone]
578 nM	CC(Oc1cc(-c2cn(CC(=O)OC(C)(C)C)cn2)cnc1N)c1c(Cl)ccc(F)c1Cl (stereo not drawn) [Example 58, (4-{6-Amino-5-[1-(2,6-dichloro-3-fluoro-phenyl)-ethoxy]-pyridin-3-yl}-imidazol-1-yl)-acetic acid tert-butyl ester]
155 nM	CC(Oc1cc(-c2cn(CCN3CCOCC3)cn2)cnc1N)c1c(Cl)ccc(F)c1Cl (stereo not drawn) [Example 59, 3-[1-(2,6-Dichloro-3-fluoro-phenyl)-ethoxy]-5-[1-(2-morpholin-4-yl-ethyl)-1H-imidazol-4-yl]-pyridin-2-ylamine]
599 nM	CC(Oc1cc(-c2cn(CC(=O)NCCN3CCCC3)cn2)cnc1N)c1c(Cl)ccc(F)c1Cl (stereo not drawn) [Example 60, 2-(4-{6-Amino-5-[1-(2,6-dichloro-3-fluoro-phenyl)-ethoxy]-pyridin-3-yl}-imidazol-1-yl)-N-(2-pyrrolidin-1-yl-ethyl)-acetamide]
72 nM	CC(Oc1cc(-c2ccc(N3CCOCC3)nc2)cnc1N)c1c(Cl)ccc(F)c1Cl (stereo not drawn) [Example 61, 5-[1-(2,6-Dichloro-3-fluoro-phenyl)-ethoxy]-6′-morpholin-4-yl-[3,3′]bipyridinyl-6-ylamine]
35.3 nM	CC(Oc1cc(-c2ccc(N3CCN(C)CC3)nc2)cnc1N)c1c(Cl)ccc(F)c1Cl (stereo not drawn) [Example 63, 5-[1-(2,6-Dichloro-3-fluoro-phenyl)-ethoxy]-6′-(4-methyl-piperazin-1-yl)-[3,3′]bipyridinyl-6-ylamine]
19.3 nM	CC(Oc1cc(-c2ccc(N3CCC(O)CC3)nc2)cnc1N)c1c(Cl)ccc(F)c1Cl (stereo not drawn) [Example 64, 6″-Amino-5″-[1-(2,6-dichloro-3-fluoro-phenyl)-ethoxy]-3,4,5,6-tetrahydro-2H-[1,2′;5′,3″]terpyridin-4-ol]
43.5 nM	CC(Oc1cc(-c2ccc(N3CCC(CO)CC3)nc2)cnc1N)c1c(Cl)ccc(F)c1Cl (stereo not drawn) [Example 65, {6″-Amino-5″-[1-(2,6-dichloro-3-fluoro-phenyl)-ethoxy]-3,4,5,6-tetrahydro-2H-[1,2′;5′,3″]terpyridin-4-yl}-methanol]
32.7 nM	CC(Oc1cc(-c2ccc(N3CCN(CCO)CC3)nc2)cnc1N)c1c(Cl)ccc(F)c1Cl (stereo not drawn) [Example 66, 2-(4-{6′-Amino-5′-[1-(2,6-dichloro-3-fluoro-phenyl)-ethoxy]-[3,3′]bipyridinyl-6-yl}-piperazin-1-yl)-ethanol]
23.1 nM	CC(Oc1cc(-c2ccc(N3CCC(N4CCCC4)CC3)nc2)cnc1N)c1c(Cl)ccc(F)c1Cl (stereo not drawn) [Example 67, 5″-[1-(2,6-Dichloro-3-fluoro-phenyl)-ethoxy]-4-pyrrolidin-1-yl-3,4,5,6-tetrahydro-2H-[1,2′;5′,3″]terpyridin-6″-ylamine]
68.1 nM	CCN(CC)CCC(=O)NCc1cccc(-c2cnc(N)c(OC(C)c3c(Cl)ccc(F)c3Cl)c2)c1 (stereo not drawn) [Example 68, N-(3-{6-Amino-5-[1-(2,6-dichloro-3-fluoro-phenyl)-ethoxy]-pyridin-3-yl}-benzyl)-3-diethylamino-propionamide]
39 nM	CC(Oc1cc(-c2ccc(N3CCN(CCN(C)C)CC3)nc2)cnc1N)c1c(Cl)ccc(F)c1Cl (stereo not drawn) [Example 69, 5-[1-(2,6-Dichloro-3-fluoro-phenyl)-ethoxy]-6′-[4-(2-dimethylamino-ethyl)-piperazin-1-yl]-[3,3′]bipyridinyl-6-ylamine]
52 nM	CC(Oc1cc(-c2cccc(CNC(=O)CN(C)C)c2)cnc1N)c1c(Cl)ccc(F)c1Cl (stereo not drawn) [Example 70, N-(3-{6-Amino-5-[1-(2,6-dichloro-3-fluoro-phenyl)-ethoxy]-pyridin-3-yl}-benzyl)-2-dimethylamino-acetamide]
27 nM	CC(Oc1cc(-c2ccc(OC3CCNCC3)nc2)cnc1N)c1c(Cl)ccc(F)c1Cl (stereo not drawn) [Example 71, 5-[1-(2,6-Dichloro-3-fluoro-phenyl)-ethoxy]-6′-(piperidin-4-yloxy)-[3,3′]bipyridinyl-6-ylamine]
49 nM	CC(Oc1cc(-c2cccc(CNC(=O)CCN)c2)cnc1N)c1c(Cl)ccc(F)c1Cl (stereo not drawn) [Example 72, 3-Amino-N-(3-{6-amino-5-[1-(2,6-dichloro-3-fluoro-phenyl)-ethoxy]-pyridin-3-yl}-benzyl)-propionamide]
21 nM	CC(Oc1cc(-c2ccc(N3CCNCC3)nc2)cnc1N)c1c(Cl)ccc(F)c1Cl (stereo not drawn) [Example 73, 5-[1-(2,6-Dichloro-3-fluoro-phenyl)-ethoxy]-6′-piperazin-1-yl-[3,3′]bipyridinyl-6-ylamine]
47 nM	CC(Oc1cc(-c2ccc(OCCC3CCNCC3)nc2)cnc1N)c1c(Cl)ccc(F)c1Cl (stereo not drawn) [Example 74, 5-[1-(2,6-Dichloro-3-fluoro-phenyl)-ethoxy]-6′-(2-piperidin-4-yl-ethoxy)-[3,3′]bipyridinyl-6-ylamine]
28 nM	CC(Oc1cc(-c2ccc(NCCN3CCCC3)nc2)cnc1N)c1c(Cl)ccc(F)c1Cl (stereo not drawn) [Example 75, 5-[1-(2,6-Dichloro-3-fluoro-phenyl)-ethoxy]-N6′-(2-pyrrolidin-1-yl-ethyl)-[3,3′]bipyridinyl-6,6′-diamine]
22 nM	CC(Oc1cc(-c2ccc(NC3CCNCC3)nc2)cnc1N)c1c(Cl)ccc(F)c1Cl (stereo not drawn) [Example 76, 5-[1-(2,6-Dichloro-3-fluoro-phenyl)-ethoxy]-N6′-piperidin-4-yl-[3,3′]bipyridinyl-6,6′-diamine]
38 nM	CC(Oc1cc(-c2cn(C3CCNCC3)cn2)cnc1N)c1c(Cl)ccc(F)c1Cl (stereo not drawn) [Example 77, 3-[1-(2,6-Dichloro-3-fluoro-phenyl)-ethoxy]-5-(1-piperidin-4-yl-1H-imidazol-4-yl)-pyridin-2-ylamine]
57 nM	CCOc1ccc(Cl)c(C(C)Oc2cc(-c3ccc(C(=O)N4CCNCC4)cc3)cnc2N)c1Cl (stereo not drawn) [Example 78, (4-{6-Amino-5-[1-(2,6-dichloro-3-ethoxy-phenyl)-ethoxy]-pyridin-3-yl}-phenyl)-piperazin-1-yl-methanone]
